These results are taken from patent US20250177362A1, “HETEROCYCLIC GLP-1 AGONISTS” (Gasherbrum Bio, Inc., priority 2022, published 2025).

What is called EC50 is the concentration giving half of the maximal effect.

Some results are limits rather than exact numbers.

The target of this test is T1, GLP-1 Receptor (Homo sapiens, UniProt P43220).
T1 construct: host or cells: HEK293/CRE-Luc (HEK293/GLPIR/CRE-LUC)
T1 sequence (P43220 24-463, species assumed): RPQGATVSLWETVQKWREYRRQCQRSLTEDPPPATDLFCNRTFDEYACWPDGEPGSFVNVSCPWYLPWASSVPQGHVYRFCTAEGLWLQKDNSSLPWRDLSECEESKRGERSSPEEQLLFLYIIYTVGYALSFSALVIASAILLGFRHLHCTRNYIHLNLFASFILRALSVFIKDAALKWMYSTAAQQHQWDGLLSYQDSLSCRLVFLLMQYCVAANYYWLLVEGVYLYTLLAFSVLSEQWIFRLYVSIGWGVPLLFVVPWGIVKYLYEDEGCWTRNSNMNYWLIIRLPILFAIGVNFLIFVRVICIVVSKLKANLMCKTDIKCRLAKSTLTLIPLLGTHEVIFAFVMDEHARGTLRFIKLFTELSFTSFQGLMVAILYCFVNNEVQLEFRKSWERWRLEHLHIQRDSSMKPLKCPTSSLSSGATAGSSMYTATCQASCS
Nature of the test: GLP-1R agonist cAMP stimulation assay. In kind it is cell-based. To be noted: HEK293/CRE-Luc cell line stably expressing the GLP-1 Receptor; 30 min incubation; cAMP dynamic 2 Kit (Cisbio). The method, then: Activation of GLP-1 receptor is known to stimulate cyclic AMP (cAMP) production in cells which indicates primary coupling to the Gas subunit of the G protein heterotrimeric complex.
To optimize functional activity directed toward Gas coupling, a HEK293/CRE-Luc cell line developed by HDB stably expressing the GLP-1 Receptor was used. 200× concentration of compound working solutions were prepared (Agilent Technologies Bravo) with ½ log serial dilution in 384-well Echo LDV plate (Labcyte, Cat #LP-0200). 50 nL/well 200× concentration of compound working solutions were moved to 384-well white low volume plate (Greiner, Cat #784075) using Labcyte ECHO550. 1×10^5 cells/mL HEK293/GLPIR/CRE-LUC (HD Biosciences) cell suspensions prepared with assay buffer [DPBS containing 0.5 mM IBMX (Sigma, Cat #15879) and 0.10% BSA (GENVIEW, Cat #FA016-100g)], 10 μL cell suspensions were added to each well of previous generated assay plate which already contains 50 nL compound at 200× concentration using ThermoFisher Multidrop Combi (1000 cells/well). Seal the plate and incubate at 37° C. with 5% CO2 for 30 min.
After incubation the cAMP assay signal was generated using cAMP dynamic 2 Kit (Cisbio). 5 μL cAMP-d2 working solution was added to each well, followed with 5 μL Anti-cAMP antibody-cryptate working solution added to each well using ThermoFisher Multidrop Combi. Incubate at room temperature for 1 hour protected from light. Read the fluorescence at 665 and 615 nm with Reader PerkinElmer EnVision.
In turn, `Cc1cc(-c2nc(C(=O)O)cs2)cnc1CN1CCC(c2cccc3c2OC(C)(c2ccc(Cl)cc2F)O3)CC1` (stereo not drawn) [E-17] gave a half-maximal effective concentration (EC50) of more than 100 nM.
In turn, `C[C@]1(c2ccc(Cl)cc2F)Oc2cccc(C3CCN(Cc4ncc(-c5nnc(C(F)(F)F)[nH]5)cc4N4CCOCC4)CC3)c2O1` [F-1, 4-[2-({4-[(2S)-2-(4-chloro-2-fluorophenyl)-2-methyl-2H-1,3-benzodioxol-4-yl]piperidin-1-yl}methyl)-5-[5-(trifluoromethyl)-4H-1,2,4-triazol-3-yl]pyridin-3-yl]morpholine] showed a concentration for a half-maximal effect (EC50) of less than 1 nM.
`Cc1cc(-c2nnc(-c3cccnc3)[nH]2)cnc1CN1CCC(c2cccc3c2O[C@@](C)(c2ccc(Cl)cc2F)O3)CC1` [E-6]: the concentration giving a half-maximal response (EC50) lay in the range of 1 to 100 nM.
Molecule `C[C@]1(c2ccc(Cl)cc2F)Oc2cccc(C3CCN(Cc4nnc(-c5nnc(C(F)(F)F)[nH]5)cc4N4CCOC5(CC5)C4)CC3)c2O1` [F-8, (S)-7-(3-((4-(2-(4-chloro-2-fluorophenyl)-2-methylbenzo[d][1,3]dioxol-4-yl)piperidin-1-yl)methyl)-6-(5-(trifluoromethyl)-4H-1,2,4-triazol-3-yl)pyridazin-4-yl)-4-oxa-7-azaspiro[2.5]octane] displayed a concentration giving a half-maximal response (EC50) of 1 to 100 nM.
For `C[C@]1(c2ccc(Cl)cc2F)Oc2cccc(C3CCN(Cc4ncc(-c5nnc(C(F)(F)F)[nH]5)cc4C4COC4)CC3)c2O1` [F-19], the concentration for a half-maximal effect (EC50) is more than 100 nM.
`C[C@]1(c2ccc(Cl)cn2)Oc2cccc(C3CCN(Cc4ncc(C(=O)NC5(C#N)CC5)cc4CC4(C#N)CC4)CC3)c2O1` [D-6] yielded an EC50 of more than 100 nM.
For `Cc1cc(-c2ccncc2)cnc1CN1CCC(c2cccc3c2OC(C)(c2ccc(Cl)cc2F)O3)CC1` (stereo not drawn) [E-14], the EC50 is more than 100 nM.
The molecule `CNC(=O)c1nnc(-c2cnc(CN3CCC(c4cccc5c4O[C@@](C)(c4ccc(Cl)cc4F)O5)CC3)c(CC3(C#N)CC3)c2)[nH]1` [E-4] came in with a half-maximal effective concentration (EC50) of less than 1 nM.
For the molecule `C[C@]1(c2ccc(Cl)cc2F)Oc2cccc(C3CCN(Cc4ncc(-c5nnc(C(F)(F)F)[nH]5)cc4N4CCNC(=O)C4)CC3)c2O1` [F-9], the concentration giving a half-maximal response (EC50) is 1 to 100 nM.
`Cc1cc(-c2nnc(-c3cccnc3)s2)cnc1CN1CCC(c2cccc(OCc3ccc(Cl)cc3F)n2)CC1` [E-16]: the concentration for a half-maximal effect (EC50) is more than 100 nM.
`N#CC1(Cc2cc(-c3nc(C(F)(F)F)n[nH]3)cnc2CN2CCC(c3ccc4cnn(Cc5ccc(Cl)cc5F)c4n3)CC2)CC1` [C-1] came in with an EC50 of less than 1 nM.
`C[C@]1(c2ccc(Cl)cc2F)Oc2cccc(C3CCN(Cc4ncc(-c5nnc(C(=O)O)[nH]5)cc4CC4(C#N)CC4)CC3)c2O1` [E-19] gave an EC50 of less than 1 nM.
For `CC1(C#N)CN(c2cc(-c3nnc(C(F)(F)F)[nH]3)cnc2CN2CCC(c3cccc4c3O[C@@](C)(c3ccc(Cl)cc3F)O4)CC2)C1` [F-18, (S)-1-(2-((4-(2-(4-chloro-2-fluorophenyl)-2-methylbenzo[d][1,3]dioxol-4-yl)piperidin-1-yl)methyl)-5-(5-(trifluoromethyl)-4H-1,2,4-triazol-3-yl)pyridin-3-yl)-3-methylazetidine-3-carbonitrile] the value was 1 to 100 nM; for `Cc1cc(-c2csc(C(=O)O)n2)cnc1CN1CCC(c2cccc3c2OC(C)(c2ccc(Cl)cc2F)O3)CC1` (stereo not drawn) [E-7], 1 to 100 nM.
`C[C@]1(c2ccc(Cl)cc2F)Oc2cccc(C3CCN(Cc4ncc(-c5nnc(C(F)(F)F)[nH]5)cc4N4CC5CC4CO5)CC3)c2O1` (stereo partly drawn) [F-5, 5-[2-({4-[(2S)-2-(4-chloro-2-fluorophenyl)-2-methyl-2H-1,3-benzodioxol-4-yl]piperidin-1-yl}methyl)-5-[5-(trifluoromethyl)-4H-1,2,4-triazol-3-yl]pyridin-3-yl]-2-oxa-5-azabicyclo[2.2.1]heptane]: the EC50 was in the range of 1 to 100 nM.
In the case of `C[C@]1(c2ccc(Cl)cc2F)Oc2cccc(C3CCN(Cc4ncc(-c5nnc(C(F)(F)F)[nH]5)cc4NC4CCCC4)CC3)c2O1` [F-11, (S)-2-((4-(2-(4-chloro-2-fluorophenyl)-2-methylbenzo[d][1,3]dioxol-4-yl)piperidin-1-yl)methyl)-N-cyclopentyl-5-(5-(trifluoromethyl)-4H-1,2,4-triazol-3-yl)pyridin-3-amine], the EC50 lay in the range of 1 to 100 nM.
Molecule `C[C@]1(c2ccc(Cl)cc2F)Oc2cccc(C3CCN(Cc4ncc(-c5nnc(C(F)(F)F)[nH]5)cc4C4CCCOC4)CC3)c2O1` (stereo partly drawn) [F-10] yielded an EC50 of 1 to 100 nM.
The molecule `CC1(c2ccc(Cl)cc2F)Oc2cccc(C3CCN(Cc4ncc(-c5nnc(C(F)(F)F)[nH]5)cc4OC4CCCC4)CC3)c2O1` (stereo not drawn) [F-12, 2-((4-(2-(4-chloro-2-fluorophenyl)-2-methylbenzo[d][1,3]dioxol-4-yl)piperidin-1-yl)methyl)-3-(cyclopentyloxy)-5-(5-(trifluoromethyl)-4H-1,2,4-triazol-3-yl)pyridine] came in with an EC50 of 1 to 100 nM.
For `CC1COCCN1c1cc(-c2nnc(C(F)(F)F)[nH]2)nnc1CN1CCC(c2cccc3c2O[C@@](C)(c2ccc(Cl)cc2F)O3)CC1` (stereo partly drawn) [F-3, 4-[3-({4-[(2S)-2-(4-chloro-2-fluorophenyl)-2-methyl-2H-1,3-benzodioxol-4-yl]piperidin-1-yl}methyl)-6-[5-(trifluoromethyl)-4H-1,2,4-triazol-3-yl]pyridazin-4-yl]-3-methylmorpholine], the half-maximal effective concentration (EC50) lay within 1 to 100 nM.
Turning to `COCCNc1cc(-c2nnc(C(F)(F)F)[nH]2)cnc1CN1CCC(c2cccc3c2O[C@@](C)(c2ccc(Cl)cc2F)O3)CC1` [F-4, 2-({4-[(2S)-2-(4-chloro-2-fluorophenyl)-2-methyl-2H-1,3-benzodioxol-4-yl]piperidin-1-yl}methyl)-N-(2-methoxyethyl)-5-[5-(trifluoromethyl)-4H-1,2,4-triazol-3-yl]pyridin-3-amine], the concentration giving a half-maximal response (EC50) fell in the range of 1 to 100 nM.
`N#CC1(Cc2cc(C(=O)NC3(C#N)CC3)cnc2CN2CCC(c3ccc(F)c(OCc4ccc(Cl)cc4F)n3)CC2)CC1` [D-7] gave an EC50 of more than 100 nM.
Consider `C[C@]1(c2ccc(Cl)cc2F)Oc2cccc(C3CCN(Cc4ncc(-c5nnc(C(F)(F)F)[nH]5)cc4C4CCOCC4)CC3)c2O1` [F-6, (S)-2-((4-(2-(4-chloro-2-fluorophenyl)-2-methylbenzo[d][1,3]dioxol-4-yl)piperidin-1-yl)methyl)-3-(tetrahydro-2H-pyran-4-yl)-5-(5-(trifluoromethyl)-4H-1,2,4-triazol-3-yl)pyridine], for which the EC50 fell in the range of 1 to 100 nM.
Molecule `CC1(c2ccc(C(=O)O)cc2F)Oc2cccc(C3CCN(Cc4ncc(-c5nnc(C(F)(F)F)[nH]5)cc4CC4(C#N)CC4)CC3)c2O1` (stereo not drawn) [A-3] registered an EC50 of 1 to 100 nM.
Take `C[C@]1(c2ccc(C(N)=O)cc2F)Oc2cccc(C3CCN(Cc4ncc(-c5nnc(C(F)(F)F)[nH]5)cc4CC4(C#N)CC4)CC3)c2O1` [A-1]: the EC50 is less than 1 nM.
Molecule `Cc1cc(-c2cc(C(=O)O)n[nH]2)cnc1CN1CCC(c2cccc3c2OC(C)(c2ccc(Cl)cc2F)O3)CC1` (stereo not drawn) [E-8] had a concentration giving a half-maximal response (EC50) of 1 to 100 nM.
`CC1(C#N)CCN(c2cc(-c3nnc(C(F)(F)F)[nH]3)cnc2CN2CCC(c3cccc4c3O[C@@](C)(c3ccc(Cl)cc3F)O4)CC2)C1` (stereo partly drawn) [F-13, 1-(2-((4-((S)-2-(4-chloro-2-fluorophenyl)-2-methylbenzo[d][1,3]dioxol-4-yl)piperidin-1-yl)methyl)-5-(5-(trifluoromethyl)-4H-1,2,4-triazol-3-yl)pyridin-3-yl)-3-methylpyrrolidine-3-carbonitrile]: the concentration for a half-maximal effect (EC50) was in the range of 1 to 100 nM.
To `CC1(c2ccc(Cl)cc2F)Oc2cccc(C3CCN(Cc4ncc(-c5nnn[nH]5)cc4C4CC4)CC3)c2O1` (stereo not drawn) [F-14, 2-((4-(2-(4-chloro-2-fluorophenyl)-2-methylbenzo[d][1,3]dioxol-4-yl)piperidin-1-yl)methyl)-3-cyclopropyl-5-(1H-tetrazol-5-yl)pyridine] belongs 1 to 100 nM; to `COCCc1cc(-c2nnc(C(=O)OC)[nH]2)cnc1CN1CCC(c2cccc3c2O[C@@](C)(c2ccc(Cl)cc2F)O3)CC1` [E-18], 1 to 100 nM; to `C[C@]1(c2ccc(Cl)cc2F)Oc2cccc(C3CCN(Cc4ncc(-c5nnc(C(F)(F)F)[nH]5)cc4CS(=O)(=O)C4CC4)CC3)c2O1` [F-16], 1 to 100 nM.
As to `Cc1cc(-c2cnc(C(=O)O)s2)cnc1CN1CCC(c2cccc3c2OC(C)(c2ccc(Cl)cc2F)O3)CC1` (stereo not drawn) [E-9], the half-maximal effective concentration (EC50) fell in the range of 1 to 100 nM.
In the case of `CC1CN(c2cc(-c3nnc(C(F)(F)F)[nH]3)nnc2CN2CCC(c3cccc4c3O[C@@](C)(c3ccc(Cl)cc3F)O4)CC2)CCO1` (stereo partly drawn) [F-17, 4-(3-((4-((S)-2-(4-chloro-2-fluorophenyl)-2-methylbenzo[d][1,3]dioxol-4-yl)piperidin-1-yl)methyl)-6-(5-(trifluoromethyl)-4H-1,2,4-triazol-3-yl)pyridazin-4-yl)-2-methylmorpholine], the EC50 was 1 to 100 nM.
Consider `C[C@]1(c2ccc(Cl)cc2F)Oc2cccc(C3CCN(Cc4ncc(-c5nnc(C(F)(F)F)[nH]5)cc4N4CCOC4=O)CC3)c2O1` [F-2, 3-[2-({4-[(2S)-2-(4-chloro-2-fluorophenyl)-2-methyl-2H-1,3-benzodioxol-4-yl]piperidin-1-yl}methyl)-5-[5-(trifluoromethyl)-4H-1,2,4-triazol-3-yl]pyridin-3-yl]-1,3-oxazolidin-2-one], for which the 50% effective concentration (EC50) lay in the range of 1 to 100 nM.
Consider `Cc1cc(-c2nc(-c3cccnc3)no2)cnc1CN1CCC(c2cccc(OCc3ccc(Cl)cc3F)n2)CC1` [E-15], for which the EC50 was more than 100 nM.
